The source of these data is article PMC5578202, “Bioaccessibility, Intestinal Permeability and Plasma Stability of Isorhamnetin Glycosides from Opuntia ficus-indica (L.)” (International Journal of Molecular Sciences, 2017).

Broadly, the Papp is a coefficient for how fast a substance crosses the barrier. Usually pKa stands for the pH at which an ionisable group is half protonated.

Data set [1] can be described thus: Simulated in vitro digestion (oral, gastric, intestinal): recovery percentage / bioaccessibility. Format: in vitro ADME. Particulars: human-simulated digestion. How it is done: The simulated in vitro digestion model was performed based on the methodology described by Garrett et al., with some modifications. Isorhamnetin aglycones and O. ficus-indica extract were subjected to digestion in triplicate. A three-step procedure was applied to simulate the digestive processes in the mouth, stomach, and small intestine. The digestion started with an amount of extract that contained an equivalent of 10 mg of isorhamnetin (60 mg) or 10 mg of isorhamnetin standard. An α-amylase solution (75 Units/mL) was added to 20 mL of solution, adjusted to pH 6.9, which was incubated for 10 min. This mixture was shaken using a VWR® Incubating orbital shaker (Thorofare, NJ, USA) for 10 min at 37 °C and 55 rpm. The gastric digestion started by adjusting the pH to 2 with 1 M HCl and, after, 2 mL of porcine-pepsin solution was added (40 mg/mL in 0.1 M HCl). This mixture was shaken in an incubator for 1 h at 37 °C and 95 rpm. For the intestinal digestion, the solution was previously adjusted to pH 5.3 with 0.9 M NaHCO3 and then a mixture of bile salts and pancreatin (6 mL containing porcine-pancreatin (2 mg/mL), and bile salts (12 mg/mL) dissolved in a NaHCO3 solution (100 mM), were added. Concentrations of pancreatin and bile extract in the final solution were 0.4 and 2.4 mg/mL, respectively. Then, the solution was adjusted to pH 7.5 by adding 1N NaOH. The mixture was shaken in an incubator for 2 h at 37 °C and 95 rpm. The enzyme reaction was inactivated by placing the sample in a hot water bath (80 °C for 2 min). At the end of the process, the digested samples were centrifuged at 13,000× g and 4 °C for 5 min (Thermo Scientific SL 16R centrifuge, Osterode, Germany). The resulting supernatant, which was considered the bioaccessible or absorbable fraction, was recovered. The recovery percentage of each compound was calculated based on the concentration in the supernatant recovered after each phase (oral, gastric, and intestinal) of the in vitro digestion. This fraction was also tested for permeability and potential bioavailability of the isorhamnetin glycosides present in the O. ficus-indica extract.

A further data set has as its system Caco-2 cell monolayer. Particulars: cited from earlier work.
The conditions of data set [2]: cited from earlier work; for Recovery after intestinal digestion: ref Ydjedd et al. [40].
Details of data set [3]: method as in Duan et al. [24]. The following applies: ref Duan et al. [24]; cited from earlier work.
The nature of data set [4]: Permeability across Caco-2/HT-29 (75:25) co-culture monolayer. It counts as in vitro ADME, human. The following applies: human, pH 7.4. How it is done:
(§1) Caco-2 and HT-29 cell lines were obtained from ATCC (American Tissue Culture Collection, Rockville, MD, USA). Cells were cultured in DMEM-F12 supplemented with 10% fetal bovine serum and were maintained at 37 °C in 5% CO2. Before the start of the permeability experiments, the cytotoxicity of isorhamnetin and the O. ficus-indica extract on Caco-2/HT-29 (75:25) co-culture were tested to ensure that the viability of the cells was over 90%. Permeability experiments were performed according to Xie et al. and Hubatsch et al. with slight modifications. Caco-2 and HT-29 co-culture cell monolayer (75:25) were seeded on 6-well transwell plates, with inserts having a polycarbonate membrane with a surface area of 4.71 cm^2 and a pore diameter of 0.4 µm (Costar, Corning, NY, USA) at a final seeding density of 1 × 10^6 cells/insert, cultured for 21 days. Caco-2 cell monolayers were washed with warm HBSS medium (pH 7.4) and then digested samples of isorhamnetin aglycone or O. ficus-indica extract were added to the apical side (AP: 1.5 mL), whereas the receiving compartment or basolateral side (BL: 2.5 mL) contained the corresponding volume of HBSS. Plates with transwell inserts were incubated at 37 °C in an orbital shaking incubator at 100 rpm. Aliquots of 1 mL were withdrawn from both compartments at 15, 30, 60 and 120 min, and fresh HBSS was added to replace the withdrawn volume. Samples were immediately frozen and preserved at −20 °C until HPLC analysis. All experiments were performed in triplicate.
(§2) The apparent permeability coefficient (Papp) was calculated from the cumulative amount permeated versus the time profile according the following Equation (1): Papp = (dQ/dt) × (V/A × C0) (1) where dQ/dt is the change in drug concentration in the receiver solution (µM/s), V represents the volume of the solution in the receiving compartment (mL), A denotes the membrane surface area (cm^2), and C0 is the initial concentration in the donor compartment (µM).
(§3) The integrity of the monolayers was measured at the beginning and the end of the experiment using the paracellular permeability of lucifer yellow (LY). Fluorescence was measured at 530 nm (emission) and 485 nm (excitation) using a microplate reader (Synergy HT, BioTek, Winooski, VM). The data from membranes displaying an LY apparent permeability coefficient (Papp) > 1 × 10^−6 cm/s were excluded.

In data set [5] the test system is Caco-2/HT-29 cell monolayer. The data set is described as above. Format: in vitro ADME, human. Particulars: for Efflux ratio [Papp(BL-AP)/Papp(AP-BL)]: Caco-2/HT-29 (Figure 2b); for Apparent permeability coefficient apical to basolateral, Papp(AP-BL): Caco-2/HT-29 co-culture, digested samples. How it is done:
as §1, §2, §3

Data set [6] is described as follows: Plasma stability / pharmacokinetics after intravenous dose in rats. The arrangement: species or system rat. Particulars: male, Wistar, in vivo, intravenous dose 2 mg/kg. As to the method:
Twenty-seven male Wistar rats, weighing approximately 200 g (eight weeks old), were divided in nine groups of three animals each. One group was taken as a control and received only a saline solution through the caudal vein. Four groups received an intravenous dose (2 mg/kg) of the O. ficus-indica extract and the last four groups received the commercial isorhamnetin standard. The dosage was determined based on results previously reported by Antunes-Ricardo et al.. Animals were anaesthetized with ketamine/xilazyne (60 mg/kg; 10 mg/kg), and then blood was extracted by intracardiac puncture at different sampling times (0.25, 0.5, 1 and 1.5 h). This procedure was randomized to avoid any bias results. After blood extraction, the animals were sacrificed by cervical dislocation. Plasma was obtained as previously described (see Section 4.6) and the samples were stored at −20 °C until analysis.
Plasma samples were spiked with 25 µL of quercetin (30 µg/mL) as an internal standard. Then, plasma samples were submitted to an acid hydrolysis with 2 M HCl for 180 min at 80 °C. Then, samples were extracted with 100% methanol (10:1, v/v), centrifuged, and the resulting supernatants were quantified by HPLC-PDA. The area under the concentration-time curve (AUC0−1.5 h) was calculated based on the linear trapezoidal method. The elimination half-life (t1/2) was determined by linear regression of the terminal portion of the plasma concentration-time data. The plasma clearance (CLplasma) was calculated by multiplying the volume of distribution, Vd, by the elimination constant, Kel, according to the following Equation (3): CLplasma: Vd × Kel (3)

The conditions of data set [7]: cited from earlier work.
The mark [8] stands for this setting: Caco-2 monolayer, ref Xie et al. [47].
The mark [9] stands for this setting: intestinal phase, pH 7.5, pancreatin and bile salts.

Like-named read-outs stand apart in the source and are kept apart here.

For the compound `COc1cc(-c2oc3cc(O)cc(O)c3c(=O)c2O)ccc1O` [I, isorhamnetin], the recovery at 2 h, 0.33 mg/mL in data set [1] (intestinal phase, pH 7.5, pancreatin and bile salts, read-out: Recovery percentage after intestinal digestion phase) was 74.3 ± 7.4%. For the same compound, the recovery at 10 min, 0.5 mg/mL in data set [1] (oral phase, pH 6.9, α-amylase, read-out: Recovery percentage after oral digestion phase) is 35 ± 2.4%. The recovery at 1 h in data set [1] (simulated in vitro digestion, gastric phase, pH 2, pepsin, read-out: Recovery percentage after gastric digestion phase) was 49 ± 3.4%. The “Papp(AP-BL)” value with Caco-2 cell monolayer (Caco-2 cells, ref Lan et al. [35]) was 2.28 ± 0.09 × 10^−6 cm/s. Also, the Papp with Caco-2 cell monolayer (Caco-2 monolayer, tested alone, ref Xie et al. [47]) was 1.61 ×10⁻⁶ cm/s. Also, in the data set with Caco-2 cell monolayer (setting [8]), the “Increase of Papp in combination with kaempferol” value is 1.33 fold and the “Increase of Papp in combination with quercetin” value is given as 2.38 fold. Moreover, the “Bioaccessibility after a simulated digestion” value in data set [2] (from almond skins, ref [19]) was 25.1 ± 7.0%. In data set [3], the pKa was 6.3. The efflux ratio at 120 min in data set [4] (Caco-2/HT-29 (Figure 2b), read-out: Efflux ratio [Papp(BL-AP)/Papp(AP-BL)]) came to 0.6. For the same compound, the Papp A→B at 120 min in data set [4] (Caco-2/HT-29 co-culture, digested samples, read-out: Apparent permeability coefficient apical to basolateral, Papp(AP-BL)) was 4.74 ± 0.02 ×10⁻⁶ cm/s. In addition, in data set [5] (Caco-2/HT-29), the “Papp basolateral to apical relative to Papp apical to basolateral” value is recorded as “two-fold lower”. In addition, in data set [6] (rat plasma, isorhamnetin after acid hydrolysis, read-out: AUC0–1.5 h of isorhamnetin), the AUC(0-t) is 104 ± 4.89 µM·h. Besides, the half-life in data set [6] (rat plasma, read-out: Elimination half-life t1/2 (converted)) is 38.4 min. In addition, in data set [6] (rat, read-out: CL plasma), the clearance turned out to be 7.44 ± 1.21 mL/min.
For `O=c1c(O[C@@H]2O[C@H](CO)[C@H](O)[C@H](O)[C@H]2O)c(-c2ccc(O)c(O)c2)oc2cc(O)cc(O)c12` [Quercetin-3-galactoside], the “Efflux ratio compared with quercetin-3-glucoside” value with Caco-2 cell monolayer (ref Duan et al. [24]) is listed as “higher efflux ratio”. Further, the Concentration in plasma in data set [7] (after ingestion of cranberry juice, ref Wang et al. [55]) is 10 to 15 ng/mL.
Consider `O=c1cc(-c2ccccc2)oc2cc(O)cc(O)c12` [chrysin], for which the “Permeability basolateral to apical relative to apical to basolateral” value with Caco-2 cell monolayer (ref [36]) was “two-fold higher”.
Take `COc1ccc([C@@H]2CC(=O)c3c(O)cc(O[C@@H]4O[C@H](CO)[C@@H](O)[C@H](O)[C@H]4O)cc3O2)cc1O` [hesperetin-7-O-glucoside]: the “Bioavailability higher than hesperetin-7-O-rutinoside” value in data set [7] (human, in vivo) is 76%. Moreover, in data set [7] (in vivo, po), the tmax was 30 ± 6 min. Also, the “Improvement of bioavailability on removing the rhamnose moiety from hesperetin-7-glucosyl-rhamnoside” value in data set [7] (in vivo) is “two-fold”.
On to `COc1ccc([C@@H]2CC(=O)c3c(O)cc(O[C@@H]4O[C@H](CO[C@@H]5O[C@@H](C)[C@H](O)[C@@H](O)[C@H]5O)[C@@H](O)[C@H](O)[C@H]4O)cc3O2)cc1O` [hesperetin-7-O-rutinoside], for which the tmax in data set [7] (after oral consumption, ref [32]) is 288 ± 132 min.
For the compound `C[C@@H]1O[C@@H](Oc2c(-c3cc(O)c(O)c(O)c3)oc3cc(O)cc(O)c3c2=O)[C@H](O)[C@H](O)[C@H]1O` [myricetin-rhamnoside], the “Recovery after a simulated digestion process” value in data set [2] (ref Ortega et al. [39]) was 51.5%. Further, the “Recovery after intestinal digestion” value in data set [2] was 40.2%.
On to `O=c1c(O)c(-c2ccc(O)c(O)c2)oc2cc(O)cc(O)c12` [quercetin as aglycone, quercetin], for which, in data set [7] (in humans, ref [54]), the “AUC0–24 h” value was 2500 ± 2200 ng·h/mL. Further, the “AUC0–1440 min of quercetin” value in data set [7] (ref Petersen et al. [56]) is 62 ± 12 µmol·min/L.
As to `C[C@@H]1O[C@@H](Oc2c(-c3ccc(O)c(O)c3)oc3cc(O)cc(O)c3c2=O)[C@H](O)[C@H](O)[C@H]1O` [quercetin rhamnoside], in data set [2], the “Recovery after intestinal digestion” value was 47.9%.
Take “isorhamnetin-3-O-glucosyl-pentoside [IGP]”: the “Recovery percentage after gastric digestion phase” value in data set [1] (gastric phase, pH 2, pepsin) is on record as 93.5 ± 3.3 ^A,a %. In data set [1] (setting [9]), the “Recovery percentage after intestinal digestion phase” value is listed as 73.3 ± 3.5 ^A,b %. Further, in data set [1] (oral phase, pH 6.9, α-amylase), the “Recovery percentage after oral digestion phase” value is on record as 96.6 ± 4.7 ^A,a %. Moreover, the “Efflux ratio [Papp(BL-AP)/Papp(AP-BL)]” value in data set [5] is on record as 3.0.
As for “isorhamnetin-3-O-glucosyl-rhamnoside [IGR]”, in data set [1] (gastric phase, pH 2, pepsin), the “Recovery percentage after gastric digestion phase” value was 96.8 ± 0.9 ^A,a %. In addition, the “Recovery percentage after intestinal digestion phase” value in data set [1] (setting [9]) was 81.0 ± 4.6 ^A,b %. Further, in data set [1] (oral phase, pH 6.9, α-amylase), the “Recovery percentage after oral digestion phase” value is listed as 99.6 ± 3.8 ^A,a %. Besides, in the data set with Caco-2 cell monolayer (Caco-2 monolayers, ref Tian et al. [23]), the “Papp(AP-BL)” value is 2.9e-07 cm/s. In data set [5], the “Efflux ratio [Papp(BL-AP)/Papp(AP-BL)]” value is given as 3.1 and the “Apparent permeability coefficient apical to basolateral, Papp(AP-BL)” value (“Apparent permeability coefficient apical” below) is given as 1.72 ± 0.01 × 10^−6 cm/s.
As to “isorhamnetin-3-O-glucosyl-rhamnosyl-pentoside [IGRP]”, the “Recovery percentage after gastric digestion phase” value in data set [1] (gastric phase, pH 2, pepsin) is reported as 96.2 ± 0.4 ^A,a %. Further, the “Recovery percentage after intestinal digestion phase” value in data set [1] (setting [9]) is listed as 80.3 ± 1.9 ^A,b %. Further, the “Recovery percentage after oral digestion phase” value in data set [1] (oral phase, pH 6.9, α-amylase) is given as 93.8 ± 5.2 ^A,a %. In data set [5], the “Efflux ratio [Papp(BL-AP)/Papp(AP-BL)]” value is given as 5.2 and the “Apparent permeability coefficient apical” value is 1.28 ± 0.02 × 10^−6 cm/s.
As to “isorhamnetin-3-O-glucosyl-rhamnosyl-rhamnoside [IGRR]”, the “Recovery percentage after gastric digestion phase” value in data set [1] (gastric phase, pH 2, pepsin) was 96.0 ± 4.4 ^A,a %. Further, the “Recovery percentage after intestinal digestion phase” value in data set [1] (setting [9]) is 79.5 ± 1.8 ^A,b %. Moreover, the “Recovery percentage after oral digestion phase” value in data set [1] (oral phase, pH 6.9, α-amylase) was 99.1 ± 3.8 ^A,a %. In data set [5], the “Efflux ratio [Papp(BL-AP)/Papp(AP-BL)]” value worked out at 5.9 and the “Apparent permeability coefficient apical” value is given as 1.03 ± 0.04 × 10^−6 cm/s.
Regarding quercetin-3-glucosyl-rhamnoside, the “Decrease in levels after intestinal digestion phase compared with gastric step” value in data set [2] (ref Tenore et al. [37]) is listed as 18.6%.
